Assay results: publication PMC8682738, “Constrained peptides mimic a viral suppressor of RNA silencing” (Nucleic Acids Research, 2021)
Positions of bridges follow the written chain, without caps; N, C: chain ends. Non-standard residues stand in square brackets, D forms with d. Residues, ends and D or L forms follow the SMILES beside them. *: point of attachment. FITC = O=C1OC2(c3ccc(O)cc3Oc3cc(O)ccc32)c2ccc(NC(=S)*)cc21; R8 = C=CCCCCCC[C@@](C)(N)C(=O)O; S5 = C=CCCC[C@](C)(N)C(=O)O; AEEA = NCCOCCOCC(=O)O

How the values were obtained:
endogenous miR-21 = experiment: Pull-down of miR-21 from K562 cells; type: cell-based, human; settings: biotinylated peptide 10 μM, streptavidin beads, qRT-PCR, triplicate
Experimental: 2 × 10^6 K562 cells were incubated with N-terminally biotinylated peptides (c(peptide) = 10 μM, t = 2.5 h) for uptake on a rotating wheel at 37°C. The cells were extensively washed in PBS and lysed in lysis buffer (25 mM HEPES, pH 7.5, 150 mM NaCl, 0.05% IGEPAL CA-630, 1 mM EDTA) supplemented with 0.5 U/μl RNAse inhibitor (Superase-in, ThermoFisher). The lysate was cleared by centrifugation at 21 000 g at 4°C, an aliquot of the supernatant was removed and re-suspended in Trizol, while the remaining was incubated with streptavidin-coupled magnetic beads (Dynabeads M280, ThermoFisher) on a rotating wheel (2 h, 4°C). After magnetic separation and washing (3× in lysis buffer), the beads were re-suspended in 20 μl lysis buffer, re-suspended in Trizol (ThermoFisher), and 400 ng t-RNA was added per sample as a carrier. RNA was extracted from Trizol using the standard protocol and the qRT-PCR was performed according to a previously published protocol ([62]) using the primers h-miR21-3p-FW ([…]), h-miR21-3p-RV ([…]), h-miR21-5p-FW ([…]), h-miR21-5p-RV ([…]) in a CFX96 real-time machine (Bio-Rad). The relative enrichment was calculated as a ratio of copies in the immunoprecipitate over input normalized to the enrichment of the control peptide D1.

pal-RNA duplex = experiment: ITC of N-terminally acetylated peptides with pal-RNA duplex; type: binding; settings: for fold increased affinity compared to linear peptide wt33: unlabeled analogs, pal-RNA
Experimental: (§1) Isothermal titration calorimetry (ITC) was conducted using a MicroCal VP-ITC (Malvern Panalytical). Before measurement, oligonucleotide and peptide samples were dissolved in PBS and degassed using a ThermoVac (Malvern Panalytical) and heated to 30°C. N-terminally acetylated peptides (c = 3–12 μM) were then transferred into the sample cell and oligonucleotides (c = 12–72 μM) were transferred into the syringe. 35 Injections per measurement were performed at 30°C (8 μl injection volume, 2 s injection time, 180 s spacing, high feedback mode) with an initial delay of 60 s and a stirring speed of 307 rpm. Measurements were performed in triplicate. Using the MicroCal LLC ITC software (Origin; OriginLab Corporation), the heat associated with each injection was calculated by integrating the area under the curve in microcalories per second [μca/s] versus time [min] for each injection and then normalized to concentration. A ‘single set of identical binding sites’ model was used to fit the binding curves from which thermodynamic binding parameters (ΔG, ΔH, ΔS, N and Kd) were obtained.

ds RNA hairpins HP 1–5 = experiment: EMSA with ds RNA hairpins HP 1-5; type: binding; settings: fluorescein-labeled B3 2 μM, hairpin RNA 1 μM, TAE and 10% glycerol, RT 1 h
Experimental: Electrophoretic mobility shift assays (EMSAs) were performed using a Bio-Rad Mini-Protean gel system paired with a direct current (DC) power source (PowerPac™ HC, Bio-Rad). Typically, 6 μl solutions containing ds RNA (c = 3 μM) and fluorescein-labeled peptide (c = 6 μM) were incubated in binding buffer (10 mM Tris (pH 8.0), 0.5 mM EDTA, 12.5% glycerol and 150 mM KCl) at 4°C for 1 h. After incubation, bound RNA was resolved from peptide-free RNA using 10% non-denaturing polyacrylamide gels at 120 V in running buffer (25 mM Tris (pH 8.0), 200 mM glycine, 20 mM NaCl) at 4°C for 1 h. Visualization of fluorescent gel-bound species was conducted using a Typhoon Trio + fluorescence scanner (GE Healthcare Life Sciences). For nucleic acid visualization, gels were stained using 2 μl of SYBR™ gold nucleic acid gel dye (Molecular Probes) in 20 ml of TAE buffer (40 mM Tris, 1 mM EDTA, 20 mM acetic acid) for 45 min at RT before being visualized using a FluorChem™ gel documentation system (Alpha Innotech). To assess B3 binding to different ds RNA sequences (Supplementary Figure S20), 6 μl solutions containing hairpin RNA (c = 1 μM) and fluorescein-labeled B3 (c = 2 μM) were incubated in binding buffer (TAE and 10% glycerol) at RT for 1 h, and then resolved using 15% non-denaturing polyacrylamide gels (acrylamide/bis-acrylamide (19:1) in TAE) at 150 V in running buffer (TAE) at 4°C for 1.5 h. […]

pre-miR-21 = experiment: ITC with pre-miR-21; type: binding
Experimental: as §1

ds miR-21 = experiment: ITC with ds miR-21; type: binding
Experimental: as §1

[1] = N-terminally acetylated peptide, PBS pH 7.4, 30°C, single set of identical binding sites model, triplicate, errors 1σ

Structure (SMILES) | enrichment of miR-21 relative to control peptide D1 (endogenous miR-21) | Kd (pal-RNA duplex; [1]) | fold increased affinity compared to linear peptide wt33 (pal-RNA duplex) | binding to ds RNA hairpins in EMSA (ds RNA hairpins HP 1–5) | Kd (pre-miR-21) | Kd (pal-RNA duplex; pal-RNA duplex) | Kd (ds miR-21)
CC(C)C[C@@H]1NC(=O)[C@@](C)(NC(=O)[C@H](CO)NC(=O)[C@H](CCCNC(=N)N)NC(=O)[C@H](CCCNC(=N)N)NC(=O)[C@H](CCC(N)=O)NC(=O)[C@H](CCC(=O)O)NC(=O)[C@H](CO)NC(=O)[C@@H]2CCCN2C(=O)[C@H](CO)NC(=O)[C@H](CCCCN)NC(=O)[C@H](Cc2c[nH]cn2)NC(=O)CNC(=O)[C@H](CCCNC(=N)N)NC(=O)[C@H](CCC(=O)O)NC(=O)[C@H](CCCCN)NC(=O)[C@H](CCCNC(=N)N)NC(=O)[C@H](CC(N)=O)NC(=O)[C@]2(C)CCCC=CCCCCCC[C@@](C)(NC(=O)[C@H](CCC(N)=O)NC(=O)[C@H](CCCCN)NC(=O)[C@H](CCCCN)NC(=O)COCCOCCNC(=S)Nc3ccc4c(c3)C(=O)OC43c4ccc(O)cc4Oc4cc(O)ccc43)C(=O)N[C@@H](CCC(N)=O)C(=O)N[C@@H](CCCNC(=N)N)C(=O)N[C@@H](CCCCN)C(=O)N[C@@H](CCCNC(=N)N)C(=O)N[C@@H](Cc3c[nH]cn3)C(=O)N[C@@H](CCCCN)C(=O)N2)CCCC=CCCC[C@@](C)(C(=O)N[C@@H](CCCNC(=N)N)C(N)=O)NC(=O)[C@H](Cc2c[nH]cn2)NC(=O)[C@H](Cc2c[nH]c3ccccc23)NC1=O [C1] ({FITC-AEEA}-KKQ[R8]QRKRHK[S5]NRKERGHKSPSEQRRS[S5]LWH[S5]R-NH2; staple 4-11, 28-32) | enrichment | 180 nM | 7 fold |  |  |  | 
CC(C)C[C@H](NC(=O)[C@]1(C)CCCC=CCCC[C@](C)(NC(=O)[C@H](CCC(=O)O)NC(=O)[C@H](CO)NC(=O)[C@@H]2CCCN2C(=O)[C@H](CO)NC(=O)[C@H](CCCCN)NC(=O)[C@H](Cc2c[nH]cn2)NC(=O)CNC(=O)[C@H](CCCNC(=N)N)NC(=O)[C@]2(C)CCCC=CCCC[C@](C)(NC(=O)[C@H](CCCCN)NC(=O)[C@H](Cc3c[nH]cn3)NC(=O)[C@H](CCCNC(=N)N)NC(=O)[C@H](CCCCN)NC(=O)[C@H](CCCNC(=N)N)NC(=O)[C@H](CCC(N)=O)NC(=O)[C@H](C)NC(=O)[C@H](CCC(N)=O)NC(=O)[C@H](CCCCN)NC(=O)[C@H](CCCCN)NC(=O)COCCOCCNC(=S)Nc3ccc4c(c3)C(=O)OC43c4ccc(O)cc4Oc4cc(O)ccc43)C(=O)N[C@@H](CC(N)=O)C(=O)N[C@@H](CCCNC(=N)N)C(=O)N[C@@H](CCCCN)C(=O)N2)C(=O)N[C@@H](CCCNC(=N)N)C(=O)N[C@@H](CCCNC(=N)N)C(=O)N[C@@H](CO)C(=O)N1)C(=O)N[C@@H](Cc1c[nH]c2ccccc12)C(=O)N[C@@H](Cc1c[nH]cn1)C(=O)N[C@@H](C)C(=O)N[C@@H](CCCNC(=N)N)C(N)=O [B3] ({FITC-AEEA}-KKQAQRKRHK[S5]NRK[S5]RGHKSPSE[S5]RRS[S5]LWHAR-NH2; staple 11-15, 24-28) | 35 fold | 70 nM | 17 fold | showed binding to each hairpin | 75 ± 8 nM | 70 ± 1 nM | 18 ± 2 nM
